Each structure is given as a SMILES string. Where a name gives a salt, the structure may show the parent alone.

Test [1] has as its target T1, Human lysosome (α-glucosidase) (Homo sapiens, UniProt P10253).
T1 construct: gene GAA
In words: enzyme inhibition assay. The class given is biochemical. Particulars: read-out: IC50 ^a / UV-4B. From the text: enzyme inhibition assay on Human lysosome (α-glucosidase)

Test [2] addresses T2, α-glucosidase I (human MDMΦs) (Homo sapiens, UniProt Q13724).
T2 construct: gene MOGS; endogenous enzyme in primary human monocyte-derived macrophages
T2 sequence (Q13724 1-837): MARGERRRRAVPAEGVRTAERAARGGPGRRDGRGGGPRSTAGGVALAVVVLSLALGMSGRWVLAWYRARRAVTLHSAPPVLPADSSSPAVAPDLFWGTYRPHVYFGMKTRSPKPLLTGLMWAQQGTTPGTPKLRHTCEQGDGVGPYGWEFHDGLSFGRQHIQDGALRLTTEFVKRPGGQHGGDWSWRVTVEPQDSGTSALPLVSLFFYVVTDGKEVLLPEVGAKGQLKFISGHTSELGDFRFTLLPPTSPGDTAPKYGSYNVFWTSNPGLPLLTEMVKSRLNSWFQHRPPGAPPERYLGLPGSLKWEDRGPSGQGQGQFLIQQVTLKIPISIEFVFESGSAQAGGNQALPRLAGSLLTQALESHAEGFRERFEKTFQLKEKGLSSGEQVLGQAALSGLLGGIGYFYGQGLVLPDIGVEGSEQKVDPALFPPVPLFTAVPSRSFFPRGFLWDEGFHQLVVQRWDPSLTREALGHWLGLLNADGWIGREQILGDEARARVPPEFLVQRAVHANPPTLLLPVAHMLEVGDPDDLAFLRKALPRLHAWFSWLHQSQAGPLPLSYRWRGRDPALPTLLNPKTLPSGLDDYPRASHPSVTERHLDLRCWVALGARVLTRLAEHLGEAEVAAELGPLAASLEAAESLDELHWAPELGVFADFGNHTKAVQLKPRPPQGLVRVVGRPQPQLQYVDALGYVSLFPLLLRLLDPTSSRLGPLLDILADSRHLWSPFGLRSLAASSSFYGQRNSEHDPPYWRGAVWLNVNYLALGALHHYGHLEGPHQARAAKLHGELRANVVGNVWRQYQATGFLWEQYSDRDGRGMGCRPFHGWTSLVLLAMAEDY
The experiment in a line: free oligosaccharide (Glc3Man5GlcNAc1) accumulation in human MDMΦs. The format is cell-based. Particulars: […] h treatment of uninfected cells.

Another test concerns the target T3, Rat intestinal maltase.
T3 construct: gene Mgam; native rat intestinal enzyme activity; maltase may be maltase-glucoamylase and/or sucrase-isomaltase
The experiment in a line: enzyme inhibition assay. The class given is biochemical. Particulars: read-out: IC50 ^a / UV-4B. The text has this:
enzyme inhibition assay on Rat intestinal maltase

A further test deals with T4, Rat intestinal sucrase (Rattus norvegicus, UniProt P23739).
T4 construct: gene Si; native rat intestinal enzyme; sucrase (C-terminal) subunit of sucrase-isomaltase
The experiment in a line: enzyme inhibition assay. Particulars: read-out: IC50 ^a / UV-4B. The format is biochemical. The text has this: enzyme inhibition assay on Rat intestinal sucrase

Test [3] deals with T5, Mouse ER α-glucosidase II (Mus musculus, UniProt Q8BHN3).
T5 construct: gene Ganab; with Glucosidase 2 subunit beta
T5 sequence (Q8BHN3 33-944): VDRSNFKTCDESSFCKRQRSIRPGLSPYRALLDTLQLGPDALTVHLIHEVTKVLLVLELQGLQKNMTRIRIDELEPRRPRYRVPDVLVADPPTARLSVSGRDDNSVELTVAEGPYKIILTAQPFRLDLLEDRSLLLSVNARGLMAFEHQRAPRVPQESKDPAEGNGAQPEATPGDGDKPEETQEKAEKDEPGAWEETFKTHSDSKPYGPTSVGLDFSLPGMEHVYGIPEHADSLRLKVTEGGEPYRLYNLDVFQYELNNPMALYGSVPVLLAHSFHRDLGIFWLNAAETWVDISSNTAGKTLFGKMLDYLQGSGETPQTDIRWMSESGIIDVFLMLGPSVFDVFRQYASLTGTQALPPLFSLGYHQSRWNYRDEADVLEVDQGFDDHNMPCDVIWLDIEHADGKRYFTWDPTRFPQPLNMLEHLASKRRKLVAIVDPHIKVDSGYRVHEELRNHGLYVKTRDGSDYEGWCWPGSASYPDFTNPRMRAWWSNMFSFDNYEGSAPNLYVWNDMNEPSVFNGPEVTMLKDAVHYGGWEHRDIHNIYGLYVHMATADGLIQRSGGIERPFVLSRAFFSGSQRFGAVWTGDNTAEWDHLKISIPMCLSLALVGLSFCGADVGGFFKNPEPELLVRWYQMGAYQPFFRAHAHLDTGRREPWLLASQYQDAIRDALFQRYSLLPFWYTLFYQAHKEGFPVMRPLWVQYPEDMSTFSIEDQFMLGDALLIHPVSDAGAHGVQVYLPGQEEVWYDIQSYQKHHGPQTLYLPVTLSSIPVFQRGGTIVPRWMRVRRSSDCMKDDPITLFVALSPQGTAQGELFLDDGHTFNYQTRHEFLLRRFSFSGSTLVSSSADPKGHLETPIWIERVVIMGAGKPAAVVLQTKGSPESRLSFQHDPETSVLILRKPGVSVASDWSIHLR
T5 sequence (O08795 15-521 partner): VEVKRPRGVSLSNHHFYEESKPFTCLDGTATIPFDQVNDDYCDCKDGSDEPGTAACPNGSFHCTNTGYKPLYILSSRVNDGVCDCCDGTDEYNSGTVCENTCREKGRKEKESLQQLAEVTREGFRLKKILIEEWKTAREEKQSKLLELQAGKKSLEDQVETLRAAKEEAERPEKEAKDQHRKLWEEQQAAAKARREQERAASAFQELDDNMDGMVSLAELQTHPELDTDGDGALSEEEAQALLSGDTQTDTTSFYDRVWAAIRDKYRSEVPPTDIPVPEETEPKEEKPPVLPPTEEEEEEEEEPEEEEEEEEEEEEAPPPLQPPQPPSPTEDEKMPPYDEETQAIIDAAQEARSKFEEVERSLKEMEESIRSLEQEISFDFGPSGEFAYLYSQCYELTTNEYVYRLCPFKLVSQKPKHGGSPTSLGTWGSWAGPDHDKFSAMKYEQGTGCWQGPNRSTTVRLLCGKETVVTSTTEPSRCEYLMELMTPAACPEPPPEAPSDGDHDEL
The experiment in a line: enzyme inhibition assay, purified enzyme. The format is biochemical. Particulars: read-out: IC50 ^a / UV-4B. The text has this: enzyme inhibition assay, purified enzyme on Mouse ER α-glucosidase II

T4 sequence (P23739 1014-1841 limits assumed): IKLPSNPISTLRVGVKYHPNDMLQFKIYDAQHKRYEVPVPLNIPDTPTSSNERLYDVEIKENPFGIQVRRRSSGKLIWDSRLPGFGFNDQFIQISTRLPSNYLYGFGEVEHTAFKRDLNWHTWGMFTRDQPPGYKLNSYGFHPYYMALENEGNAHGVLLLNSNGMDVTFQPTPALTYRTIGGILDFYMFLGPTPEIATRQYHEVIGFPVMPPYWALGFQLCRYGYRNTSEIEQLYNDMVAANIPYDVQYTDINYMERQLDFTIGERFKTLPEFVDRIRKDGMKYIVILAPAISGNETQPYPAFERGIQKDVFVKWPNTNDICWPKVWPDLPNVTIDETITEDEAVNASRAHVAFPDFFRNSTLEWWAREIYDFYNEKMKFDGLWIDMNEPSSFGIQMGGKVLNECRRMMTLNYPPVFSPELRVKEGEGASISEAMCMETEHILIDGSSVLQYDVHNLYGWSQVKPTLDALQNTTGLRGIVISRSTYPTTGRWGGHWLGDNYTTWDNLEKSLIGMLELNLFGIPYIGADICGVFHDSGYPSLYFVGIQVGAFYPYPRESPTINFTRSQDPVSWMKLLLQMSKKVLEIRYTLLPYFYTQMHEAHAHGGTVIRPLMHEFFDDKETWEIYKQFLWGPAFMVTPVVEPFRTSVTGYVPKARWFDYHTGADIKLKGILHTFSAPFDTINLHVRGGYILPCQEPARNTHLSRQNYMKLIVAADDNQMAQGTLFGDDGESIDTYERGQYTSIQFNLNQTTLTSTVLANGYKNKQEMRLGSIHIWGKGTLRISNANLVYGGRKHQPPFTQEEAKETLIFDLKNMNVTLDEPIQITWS

On to `COCCCCCCCCCN1C[C@H](O)[C@@H](O)[C@H](O)[C@H]1CO` [UV-4B, N-(9′-methoxynonyl)-1-deoxynojirimycin hydrochloride], for which the IC50 was determined as 390 nM in test [1], 280 nM at Rat intestinal maltase, 500 nM at Rat intestinal sucrase and 1800 nM in test [3]. Moreover, the “free oligosaccharide (Glc3Man5GlcNAc1) accumulation in human MDMΦs” value in test [2] was “UV-4B led to accumulation of FOS representative of inhibition of both α-glucosidases”.

The values are drawn from paper PMC5064435, “Inhibition of endoplasmic reticulum glucosidases is required for in vitro and in vivo dengue antiviral activity by the iminosugar UV-4” (Antiviral Research, 2016).
